The values below come from patent US8986758B2, “Method for extracting a traditional herbal medicine component using a polished-rice steaming method” (Amorepacific Corporation, priority 2009, dated 2015).

Data set [1] has as its system C57BL/6 mouse-derived pigment cells (Mel-Ab cells). Kind of data set: Effect of inhibiting melanin production using mouse pigment cells (Dooley's method). Format: cell-based. Particulars: 72 h, each sample at 10 ppm, Mel-Ab cells cultured 3 days, absorbance at 400 nm. As to the method: C57BL/6 mouse-derived pigment cells (Mel-Ab cells) (Dooley, T. P. et al., Skin pharmacol, 7, pp. 188-200) are cultured in a DMEM ([…]), to which 10% fetal bovine serum, 100 nM 12-O-tetradecanoylphorbol-13-acetate and 1 nM cholera toxin are added, at 37° C. under 5% CO2. The cultured Mel-Ab cells are released by using 0.25% trypsin-EDTA and incubated on a 24-well plate at a concentration of 10^5 cells/well. From the next day, each test sample is added to culture the cells continuously for 3 days.
The test samples used herein include hydroquinone, the extract of traditional herbal medicine of Comparative Example 1 and the extract of traditional herbal medicine obtained by polished-rice steaming method according to Example 1. Each sample is used at a concentration of 10 ppm. Hydroquinone is used as a positive control. Then, the culture medium is removed and the cells are washed with phosphate buffered saline (PBS). The cells are subjected to cell lysis using 1N sodium hydroxide and absorbance is determined at 400 nm. The absorbance measurement is used to calculate % inhibition of melanin production according to the following Mathematical Formula 1. The results are shown in the following Table 1 (Dooley's method). % Inhibition of melanin production=100−{(absorbance of each sample/absorbance of control)×100} [Mathematical Formula 1]

For the next data set, the system named is skin. In words: Irritation test on panels sensitive to irritation. Format: in vivo. The text has this: Particularly, 15 panels sensitive to irritation, such as stinging, burning, etc., are subjected to a test for determining irritation feeling, including stinging, itch and dazzling. […] The results are shown in the following Table 2. <Evaluation Criteria> 0-0.4: No irritation 0.5-1.0: slight irritation 1.1-2.0: mild irritation 2.1-3.0: severe irritation

Where [2] appears, read: grade 0 to 3.0, 0.5 mL applied onto skin, 15 panels, 0-0.4 no, 0.5-1.0 slight, 1.1-2.0 mild, 2.1-3.0 severe irritation.

Take `Oc1ccc(O)cc1` [Hydroquinone, hydroquinone]: the inhibition – broadly, the share of the control response that was lost under treatment – at 10 ppm in data set [1] was determined as 58.9%.
In the data set with skin (average of stinging and burning grades, grade 0 to 3.0, 0-0.4 no, 0.5-1.0 slight irritation), `O=c1cc(CO)occ1O` [Kojic acid, kojic acid] showed an Average of 0.68. Moreover, in the data set with skin (setting [2]), the Burning was 0.50 and the Stinging is 0.85. Besides, the “irritation (in words)” value in the data set on skin (summary of Table 2, 0.5 mL applied onto skin) is given as “perceptible degree of irritation”.
